The experiment relates to MBL-producing P. aeruginosa clinical isolates. The experiment is described as follows: MIC by broth microdilution (CLSI). The format is cell-based, Pseudomonas aeruginosa. The settings on record: Pseudomonas aeruginosa. The method, then:
The DMSO stock solutions of the test compounds were serially diluted to the desired concentrations in CAMHB. Then, 10 μL of the bacterial suspension (5 × 10^5 colony forming units (CFU)/mL) was combined with 200 μL of DMSO stock solutions of the test compounds in 96-well microtiter plates (1% DMSO, final). After the incubation of the plate at 37 °C for 24 h, bacterial growth was visibly evaluated by monitoring the turbidity of the resulting suspension, and the MICs were determined as the lowest concentrations of the test compounds that inhibited the visible growth of the bacteria.
For orientation: In broth dilution the organism is exposed to a series of concentrations in liquid medium.

In brackets after ≈: the same amount, converted by molar mass.

As usually defined, the MIC is the smallest concentration in the dilution series that meets the test's criterion for growth inhibition. In the case of `C[C@@H](O)[C@H]1C(=O)N2C(C(=O)O)=C(SCCN=CN)C[C@H]12` [IPM, imipenem], the MIC is, setting by setting: (PA-001, blaNDM) more than 8 µg/mL; (PA-002, blaIMP) more than 8 µg/mL; (PA-007, blaNDM) more than 8 µg/mL; (PA-008, blaNDM) more than 8 µg/mL; (PA-011, blaNDM) more than 8 µg/mL; (PA-012, blaNDM) more than 8 µg/mL. The same compound had a minimal inhibitory concentration (MIC) (PA-016, blaIMP) of more than 8 µg/mL; an MIC (PA-017, blaNDM) of more than 8 µg/mL; an MIC (PA-019, blaNDM) of more than 8 µg/mL; an MIC (PA-020, blaNDM) of more than 8 µg/mL; an MIC (PA-023, blaNDM) of more than 8 µg/mL; a minimal inhibitory concentration (MIC) (PA-025, blaNDM) of more than 8 µg/mL. For the same compound, the MIC by setting is: (PA-027, blaIMP) more than 8 µg/mL; (PA-028, blaNDM) more than 8 µg/mL; (PA-029, blaIMP) more than 8 µg/mL; (PA-030, blaIMP) more than 8 µg/mL; (PA-034, blaNDM) more than 8 µg/mL; (PA-036, blaNDM) more than 8 µg/mL. Further, the MIC is, setting by setting: (PA-038, blaNDM) more than 8 µg/mL; (PA-039, blaNDM) more than 8 µg/mL; (PA-044, blaNDM) more than 8 µg/mL.
On to `C[C@@H](O)[C@H]1C(=O)N2C(C(=O)O)=C(S[C@@H]3CN[C@H](C(=O)N(C)C)C3)[C@H](C)[C@H]12` [MEM, meropenem], for which the minimal inhibitory concentration (MIC) by setting is: (PA-001, blaNDM) more than 32 µg/mL; (PA-002, blaIMP) more than 32 µg/mL; (PA-007, blaNDM) more than 32 µg/mL; (PA-008, blaNDM) more than 32 µg/mL; (PA-011, blaNDM) more than 32 µg/mL; (PA-012, blaNDM) more than 32 µg/mL. Also, the MIC is more than 32 µg/mL (PA-016, blaIMP); more than 32 µg/mL (PA-017, blaNDM); more than 32 µg/mL (PA-019, blaNDM); more than 32 µg/mL (PA-020, blaNDM); more than 32 µg/mL (PA-023, blaNDM); more than 32 µg/mL (PA-025, blaNDM). Besides, the MIC runs as follows: (PA-027, blaIMP) more than 32 µg/mL; (PA-028, blaNDM) more than 32 µg/mL; (PA-029, blaIMP) more than 32 µg/mL; (PA-030, blaIMP) more than 32 µg/mL; (PA-034, blaNDM) more than 32 µg/mL; (PA-036, blaNDM) more than 32 µg/mL. Besides, the MIC (PA-038, blaNDM) is more than 32 µg/mL; the minimum inhibitory concentration (MIC) (PA-039, blaNDM) is more than 32 µg/mL; the MIC (PA-044, blaNDM) is more than 32 µg/mL.
Regarding `CC(C)(O/N=C(\C(=O)N[C@@H]1C(=O)N2C(C(=O)[O-])=C(C[n+]3ccccc3)CS[C@H]12)c1csc(N)n1)C(=O)O` [CAZ, ceftazidime], the MIC reads like this: (PA-001, blaNDM) more than 16 µg/mL; (PA-002, blaIMP) more than 16 µg/mL; (PA-007, blaNDM) more than 16 µg/mL; (PA-008, blaNDM) more than 16 µg/mL; (PA-011, blaNDM) more than 16 µg/mL; (PA-012, blaNDM) more than 16 µg/mL. Moreover, the minimal inhibitory concentration (MIC) is more than 16 µg/mL (PA-016, blaIMP); more than 16 µg/mL (PA-017, blaNDM); more than 16 µg/mL (PA-019, blaNDM); more than 16 µg/mL (PA-020, blaNDM); more than 16 µg/mL (PA-023, blaNDM); more than 16 µg/mL (PA-025, blaNDM). Besides, the MIC is more than 16 µg/mL (PA-027, blaIMP); more than 16 µg/mL (PA-028, blaNDM); more than 16 µg/mL (PA-029, blaIMP); more than 16 µg/mL (PA-030, blaIMP); more than 16 µg/mL (PA-034, blaNDM); more than 16 µg/mL (PA-036, blaNDM). Besides, the MIC was more than 16 µg/mL (PA-038, blaNDM); more than 16 µg/mL (PA-039, blaNDM); more than 16 µg/mL (PA-044, blaNDM).
Regarding `CO/N=C(\C(=O)N[C@@H]1C(=O)N2C(C(=O)[O-])=C(C[N+]3(C)CCCC3)CS[C@H]12)c1csc(N)n1` [FEP, cefepime], the MIC (PA-001, blaNDM) is more than 16 µg/mL; the MIC (PA-002, blaIMP) was more than 16 µg/mL; the MIC (PA-007, blaNDM) amounted to 16 µg/mL (≈ 33.3 µM); the MIC (PA-008, blaNDM) was more than 16 µg/mL; the MIC (PA-011, blaNDM) was more than 16 µg/mL; the MIC (PA-012, blaNDM) was more than 16 µg/mL. Further, the MIC runs as follows: (PA-016, blaIMP) more than 16 µg/mL; (PA-017, blaNDM) more than 16 µg/mL; (PA-019, blaNDM) more than 16 µg/mL; (PA-020, blaNDM) 16 µg/mL (≈ 33.3 µM); (PA-023, blaNDM) more than 16 µg/mL; (PA-025, blaNDM) more than 16 µg/mL. Moreover, the MIC (PA-027, blaIMP) was more than 16 µg/mL; the MIC (PA-028, blaNDM) is more than 16 µg/mL; the minimal inhibitory concentration (MIC) (PA-029, blaIMP) was more than 16 µg/mL; the MIC (PA-030, blaIMP) is more than 16 µg/mL; the MIC (PA-034, blaNDM) was more than 16 µg/mL; the MIC (PA-036, blaNDM) was more than 16 µg/mL. This compound displayed an MIC (PA-038, blaNDM) of more than 16 µg/mL; an MIC (PA-039, blaNDM) of more than 16 µg/mL; a minimum inhibitory concentration (MIC) (PA-044, blaNDM) of more than 16 µg/mL.

The record behind these values is paper PMC10892423 (Pharmaceutics, 2024).
